Experimental data from patent publication US5852050A, “Preparation for treating wounds or hemorrhoids” (Kaken Pharmaceutical Co., Ltd., priority 1992, dated 1998).
Entries after “also recorded” stand apart in the source; their conditions may differ. Like-named read-outs stand apart in the source and are kept apart here. Values belong to the compound of their own block, whether it stands above or below them.

Columns and labels:
[1] = test system: full-thickness skin layer wounds of diabetic mice; test: Effect of Beraprost on Wound Healing in full-thickness skin wound model of diabetic mice; type: in vivo, hereditary diabetic mice (C57BL/KsJ-dbm (db+/db+))
Description: Effect of Beraprost on Wound Healing in Full Sickness Wound Model of Diabetic Mice Whose Full-Thickness Skin Layer was Ablated
Hair on the backs of hereditary diabetic mice (C57BL/KsJ-dbm (db+/db+), male, 11 to 12 weeks of age, 6 mice per group) was removed one day before a test. The back portions of the mice were cleaned with ethanol under ether anesthesia, and circular full-thickness skin layer wounds (2 cm^2) were formed in the middle portions of the backs with surgical curved scissors.
Beraprost (sodium salt) as a test medicament was prepared in the form of a saline solution containing 20 % ethanol, and the saline solution was dropwise administered at a dosage of 5 μg/10 μl/cm^2 ×14 times (once per day for 14 days). As control, a solution (vehicle) containing no medicament was administered.
For evaluating the effects of the test medicament, the wound surfaces were traced on plastic sheets at intervals of 2-3 days, and measured for wound areas with a planimeter. The ratios of the wound areas to the area immediately after the skin ablation were calculated, and the numbers of days required for the visual completion of epidermization (complete healing) from the skin-removed wounds were used as indices.
Further, the degrees of the vascularization and granulation of wound surfaces were visually scored, and changes with the passage of days and side effects were observed.
Further, an exudate was collected 9 days after the skin ablation, and a mixture of the exudate with a saline solution used for washing the wound was measured for a leucocyte number through a microscope.
Further, the mice were sacrificed by ether anesthesia on 31th day, and skins of the wound portions were cut off and fixed with a 10% neutral buffer formalin solution. Then, paraffin sections, Hematoxyrin-Eosin-stained specimens and Masson trichrome-stained specimens were prepared according to conventional methods and observed through a microscope.

[2] = test system: Experimental Hemorrhoids Model in Rats; test: Prevention effects on experimental hemorrhoids model in rats (croton oil); type: in vivo, Male SLC: Wistar rats; design: Mucosa Bleeding, Necrosis, Peeling (total length from anus transition portion) / Mucosa Red thrombus (number of thrombus) / Mucosa Epithelium Activation, number of rats / Mucosa Congestion, number of rats / Submucosa Swelling, number of rats / Submucosa Inflammatory cell infiltration, number of rats: dose or concentration left out as unconfirmed; conditions: for Submucosa Inflammatory cell infiltration, number of rats / Mucosa Congestion, number of rats / Mucosa Epithelium Activation, number of rats / Submucosa Swelling, number of rats: 8 rats
Description: (§1) Prevention and Therapy Effects on Experimental Hemorrhoids Model in Rats
(§2) A mixture of 1 volume of distilled water, 4 volumes of pyridine, 5 volumes of ethyl ether and 10 volumes of a 3% croton oil ethyl ether solution was used. The distilled water and a small amount of ethyl ether were added to, and blended with, the pyridine, and the 3% croton oil ethyl ether solution was added. Further, the remaining ethyl ether was added, and the mixture was vigorously stirred to prepare an inflammation-inducing agent containing croton oil. This solution was prepared just before the test, and stored with ice cooling during the test.
(§3) Beraprost (sodium salt) was dissolved in distilled water to prepare a solution for oral administration and dissolved in a saline solution to prepare a solution for intrarectal administration.
(§4) In the test of effects on the prevention of hemorrhoids, the dosage for oral administration was 0.1, 0.3 or 1.0 mg/kg, and the dosage for intrarectal administration was 0.01, 0.03, 0.1, 0.3 or 1.0 mg/kg. In the tests of effects on the therapy of hemorrhoids, the dosage for oral administration was 0.1 mg/kg, and the dosage for intrarectal administration was 0.03 mg/kg. Further, the dosage of the solution for oral administration was 10 ml/kg, and the dosage of the solution for intrarectal administration was 100 μl/kg.
(§5) Seven to 8 rats were used as one group.
In the test of prevention of hemorrhoids, beraprost was orally or intrarectally administered, and 30 minutes after the administration, 100 μl of the inflammation-inducing agent containing croton oil was infiltrated into the tampon of a swab and the tampon was inserted into the anus of each rat under no anesthesia for 10 seconds to induce inflammation.
Three hours after the induction of inflammation, the rats were sacrificed by bleeding under anesthesia with ethyl ether, and a rectum-anus portion was taken from each rat such that it was exactly 20 mm long from a circular hairline on the anus epithelium, and measured for a weight.
Further, in the intrarectally administered group, the isolated rectum-anus portion was fixed with a 10% neutral buffer formalin solution, and paraffin sections, Hematoxyrin-Eosin-stained specimens and Phosphotungstic acid hematoxyin-stained specimens were prepared according to conventional methods. Then, these were observed and their photographs were taken through an optical microscope The histological data obtained by the intrarectal administration of beraprost were examined.
(§6) In addition, distilled water alone was administered to the control group for oral administration, and a saline solution (vehicle) alone was administered to the control group for intrarectal administration. Further, for comparison, a non-treated group which was neither treated with the inflammation-inducing agent containing croton oil and nor treated with a medicament and which was neither administered with distilled water nor administered with a saline solution was tested in the same manner.
(§7) For the effect of beraprost on the weight of the rectum-anus portion, the difference from the control group was determined according to Student's t test, and for the histological data, the difference from the control group was determined according to Kruskal-Wallis H test. Further, the inhibition ratio was calculated on the basis of the rectum-anus portion average weight of each group by the following equation.
(§8) Inhibition ratio (%)={1-[medicament-administered group-non-treated
(§9) group)/(control group-non-treated group)]}×100

[3] = test system: Experimental Hemorrhoids Model in Rats; test: Therapy effects on experimental hemorrhoids model in rats (croton oil); type: in vivo, Male SLC: Wistar rats; conditions: for Wet weight of anus-rectum: twice a day for 4 days, average ± standard error, * P < 0.05 vs control
Description: as §1, §2, §3, §4, §5
In the test of effects on the therapy of hemorrhoids, inflammation was induced with an inflammation-inducing agent containing croton oil in the same manner as in the test of effects on the prevention. Beraprost was administered twice a day in the morning and evening for 4 days, and the administration was started one day after the induction of inflammation. Rectum-anus portions isolated after 5 days in the same manner as in the test of effects on prevention were measured for a weight.
as §6, §7, §8, §9

Chemical stability = type: physicochemical; conditions: beraprost or a salt thereof, powder
Solubility in water = type: physicochemical; conditions: beraprost or a salt thereof, powder
[4] = background statement; cited from earlier work
platelet aggregation = conditions: background statement; cited from earlier work
[5] = 9 days after the administration, as compared with vehicle
[6] = 9 days after the administration, mean ± S.E., ** P < 0.01 vs vehicle
[7] = score + (Low degree), 31 days after the skin ablation
[8] = score + (Low degree), 31 days after the skin ablation, distribution * P < 0.05 (H test)
[9] = score ++ (Intermediate degree), 31 days after the skin ablation
[10] = score +++ (High degree), 31 days after the skin ablation
[11] = score - (Not affected), 31 days after the skin ablation
[12] = intrarectal 0.03 mg/kg, on average, P<0.01
[13] = intrarectal, average ± standard error, ** P < 0.01
[14] = score + (Low degree), intrarectal, distribution XX P < 0.01
[15] = score ++ (Intermediate degree), intrarectal

weight difference from vehicle-administered group ([1]; mouse, in vivo): no weight difference was observed
chemical stability (Chemical stability): chemically stable
solubility in water (Solubility in water): soluble in water
Compound: CC#CCC(C)[C@H](O)/C=C/[C@@H]1[C@H]2c3cccc(CCCC(=O)O)c3O[C@H]2C[C@H]1O (relative stereo) [Beraprost, (±)-(1R*, 2R*,3aS*,8bS*)-2,3,3a,8b-tetrahydro-2-hydroxy-1-[(E)-(3S*)-3-hydroxy-4-methyl-1-octen-6-ynyl]-1H-cyclopenta[b]benzofuran-5-butyric acid]
change ratio of wound area ([1]; 3 days after administration, 5 μg/10 μl/cm^2 once per day for 14 days, mean ± S.E.): 95.7 ± 2.50%
amount of exudate (in words) [1, 5]: clear increase
number of infiltrated leucocyte (in words) [1, 5]: clear increase
Amount of exudate [1, 6]: 36.6 ± 10.73 µL
Number of infiltrated leucocyte [1, 6]: 110.1 ± 31.66 × 10^4 cells/site
change ratio of wound area ([1]; 10 days after administration, mean ± S.E., ** P < 0.01 vs vehicle): 24.4%
change ratio of wound area ([1]; 21 days after administration, mean ± S.E., * P < 0.05 vs vehicle): 0.1%
histology of skin ablation portions (in words) ([1]; 31 days after the skin ablation): the whole areas were covered with regenerated skin and the exudate of the dermis disappeared; also recorded: the tissue showed transition to fibrosis, no formation of abnormal tissue or no scar of excess formation was shown, and normal wound healing was shown
completion of healing first observed ([1]; day after administration): from the twenty-first day after administration
wound surfaces (decrease, in words) ([1]; from the sixth day after administration, as compared with vehicle): remarkable decreases
Days until complete healing ([1]; mean ± S.E., ** P < 0.01 vs vehicle): 22 days
systemic side effects ([1]; mouse, in vivo): no systemic side effects
Dermis, Subcutaneous tissue Exudate, number of cases [1, 7]: 1 cases in six mice
Epidermis Hypertrophy, number of cases [1, 7]: 1 cases in six mice
Epidermis Regeneration, number of cases [1, 7]: 0 cases in six mice
Dermis, Subcutaneous tissue Fibrosis, number of cases [1, 8]: 0 cases in six mice
Dermis, Subcutaneous tissue Granulation, number of cases [1, 8]: 2 cases in six mice
Dermis, Subcutaneous tissue Fibrosis, number of cases [1, 9]: 2 cases in six mice
Dermis, Subcutaneous tissue Granulation, number of cases [1, 9]: 0 cases in six mice
Epidermis Regeneration, number of cases ([1]; score ++ (Intermediate degree), 31 days after the skin ablation, distribution * P < 0.05 (H test)): 0 cases in six mice
Dermis, Subcutaneous tissue Fibrosis, number of cases [1, 10]: 4 cases in six mice
Epidermis Regeneration, number of cases [1, 10]: 6 cases in six mice
Dermis, Subcutaneous tissue Fibrosis, number of cases [1, 11]: 0 cases in six mice
Dermis, Subcutaneous tissue Granulation, number of cases [1, 11]: 4 cases in six mice
Epidermis Regeneration, number of cases [1, 11]: 0 cases in six mice
Dermis, Subcutaneous tissue Exudate, number of cases ([1]; score - (Not affected), 31 days after the skin ablation, distribution * P < 0.05 (H test)): 5 cases in six mice
vascularization and granulation on the wound surfaces ([1]; visual, as compared with vehicle-administered group): clear expeditious progress in the vascularization and granulation
dosage group with the largest effect ([2]; intrarectal): 0.03 mg/kg
Inhibition ratio ([2]; intrarectal 0.01 mg/kg): 22.9%
Wet weight of anus-rectum ([2]; intrarectal 0.01 mg/kg, average ± standard error, ** P < 0.01 vs control): 303.3 ± 6.25 mg
Inhibition ratio ([2]; intrarectal 0.03 mg/kg): 35.8%
histology of rectum (in words) ([2]; intrarectal 0.03 mg/kg): the degrees of swelling and inflammatory cell infiltration lowered; also recorded: the mucosal epithelial cell nucleus was more densely stained than in a normal portion, and cells which appeared to be in an active state were distinctly observed; also recorded: the degree of congestion was lowered
Wet weight of anus-rectum ([2]; intrarectal 0.03 mg/kg, average ± standard error, ** P < 0.01 vs control): 277.3 ± 12.88 mg
number of blood vessels having red thrombus [2, 12]: 6.8±2.35
range of bleeding, necrosis and peeling of mucosal layer [2, 12]: 5.4±0.19 mm
Inhibition ratio ([2]; intrarectal 0.1 mg/kg): 30.1%
Wet weight of anus-rectum ([2]; intrarectal 0.1 mg/kg, average ± standard error, ** P < 0.01 vs control): 288.7 ± 5.63 mg
Inhibition ratio ([2]; intrarectal 0.3 mg/kg): 24.6%
Wet weight of anus-rectum ([2]; intrarectal 0.3 mg/kg, average ± standard error, ** P < 0.01 vs control): 299.7 ± 9.74 mg
Inhibition ratio ([2]; intrarectal 1.0 mg/kg): 20.5%
Wet weight of anus-rectum ([2]; intrarectal 1.0 mg/kg, average ± standard error, * P < 0.05 vs control): 308.0 ± 14.51 mg
inhibition of rectum-anus weight increase (in words) ([2]; intrarectal 0.01 to 1.0 mg/kg, P<0.05 to 0.01): significant inhibition activity
Mucosa Bleeding, Necrosis, Peeling (total length from anus transition portion) [2, 13]: 5.4 ± 0.19 mm
Mucosa Red thrombus (number of thrombus) [2, 13]: 6.8 ± 2.35
Inhibition ratio ([2]; oral 0.1 mg/kg): 24.5%
Wet weight of anus-rectum ([2]; oral 0.1 mg/kg, average ± standard error, ** P < 0.01 vs control): 307.1 ± 5.87 mg
Inhibition ratio ([2]; oral 0.3 mg/kg): 32.3%
Wet weight of anus-rectum ([2]; oral 0.3 mg/kg, average ± standard error, ** P < 0.01 vs control): 292.5 ± 11.28 mg
Inhibition ratio ([2]; oral 1.0 mg/kg): 39.3%
Wet weight of anus-rectum ([2]; oral 1.0 mg/kg, average ± standard error, ** P < 0.01 vs control): 279.3 ± 8.32 mg
swelling inhibition activity (in words) ([2]; oral 0.1 to 1.0 mg/kg, depending upon the dosage): clear swelling inhibition activity depending upon the dosage
swelling in rectum-anus portion and histopathological data (overall, in words) ([2]; orally and intrarectally administered): clearly inhibits the swelling; also recorded: remarkable effects in histopathological data
Submucosa Inflammatory cell infiltration, number of rats ([2]; score + (Low degree), intrarectal, distribution X P < 0.05): 5
Mucosa Congestion, number of rats [2, 14]: 8
Mucosa Epithelium Activation, number of rats [2, 14]: 2
Mucosa Congestion, number of rats [2, 15]: 0
Mucosa Epithelium Activation, number of rats [2, 15]: 6
Submucosa Inflammatory cell infiltration, number of rats [2, 15]: 3
Submucosa Swelling, number of rats ([2]; score ++ (Intermediate degree), intrarectal, distribution XX P < 0.01): 8
Submucosa Swelling, number of rats ([2]; score +++ (High degree), intrarectal): 0
Mucosa Epithelium Activation, number of rats ([2]; score - (No change), intrarectal): 0
Inhibition ratio ([3]; i.r. 0.03 mg/kg): 31.4%
Wet weight of anus-rectum ([3]; i.r. 0.03 mg/kg): 368.5 ± 27.35 mg
activity for inhibiting the swelling (in words) ([3]; oral 0.1 mg/kg and intrarectal 0.03 mg/kg, P<0.05): significant (P<0.05) activity for inhibiting the swelling
Inhibition ratio ([3]; p.o. 0.1 mg/kg): 27.1%
Wet weight of anus-rectum ([3]; p.o. 0.1 mg/kg): 380.7 ± 23.74 mg
chemical stability [4]: chemically stable

Compound: CCCCC[C@H](O)/C=C/[C@H]1[C@H](O)CC(=O)[C@@H]1CCCCCCC(=O)O [PGE1, prostaglandin E1]
inhibition activity of platelet aggregation (platelet aggregation): high inhibition activity of platelet aggregation

Compound: CCCCC[C@H](O)/C=C/[C@@H]1[C@H]2C/C(=C/CCCC(=O)O)O[C@H]2C[C@H]1O [PGI2, Prostaglandin I2]
chemical stability [4]: chemically unstable
inhibition activity of platelet aggregation (platelet aggregation): high inhibition activity of platelet aggregation
